The numbers were not newly measured in patent US11229596B2, “Preservative free pharmaceutical ophthalmic compositions” (PHARMATHEN S.A., priority 2016, dated 2022), which cites them from elsewhere.

Data set [1] deals with intraocular pressure. Particulars: in man.

Structures can show the parent of a compound that is named as a salt. Where two headings read alike, the source gives them in different places.

Turning to `CC(C)(C)NC[C@H](O)COc1nsnc1N1CCOCC1` [Timolol maleate], the Solubility result by setting is: (in chloroform) “sparingly soluble”; (in cyclohexane) “insoluble”; (in ethanol) “soluble”; (in ether) “insoluble”; (in methanol) “soluble”; (in propylene glycol) “sparingly soluble”. Moreover, the Solubility entry (in water) is given as “soluble”.

`CC(C)OC(=O)CCC/C=C\C[C@@H]1[C@@H](CC[C@@H](O)CCc2ccccc2)[C@H](O)C[C@@H]1O` [Latanoprost]: the Solubility entry by setting is: (in acetonitrile) “very soluble”; (in ethanol) “freely soluble”; (in water) “practically insoluble”. The “Duration of pressure reduction” value in data set [1] is on record as “at least 24 hours”. The “Start of reduction of the intraocular pressure after administration” value in data set [1] is “three to four”. For the same compound, the “Time to maximum effect on intraocular pressure” value in data set [1] was “eight to twelve”.
